Assay results: US11565003B2, “Mechanical opening of lipid bilayers by molecular nanomachines” (William Marsh Rice University, priority 2016, dated 2023)

Experiments:
NIH 3T3 cells [1] = assay: UV-activated nanomechanical necrosis, live cell confocal microscopy, NIH 3T3; format: cell-based, mouse; settings: for Time of Full Necrosis / Time of Initial Necrosis / % acceleration for full necrosis: 355 nm UV; for % acceleration for full necrosis: versus UV upon blank cells
Method: Following the synthetic bilipid vesicle experiments, nanomechanical action upon live cells was studied using confocal microscopy aided by a super-resolution technique called Phase Modulation Nanoscopy. Applicants used two experimental methods. In the first method (Method A), the molecular motors were loaded into the cell media and the imaging was initiated within 5 minutes to 24 hours. In the second method, (Method B), the molecular motors were loaded into the cell media, incubated for 30 minutes to 24 hours, and then washed three times with fresh molecular motor-free media before imaging. […]
(§1) Microscopy cells were seeded in untreated iBibi 100 μL live cell channels and allowed to grow to 40% to 60% confluence, at 37° C. in 5% CO2. At this stage, the medium was replaced and cells were treated with the studied nanomachines and co-stains as appropriate, with 0.1% DMSO (as detailed above) present in the final imaging medium. For live cell imaging, DMEM/F12 media (10% FBS) lacking phenol red was used from this point onwards. Following incubation, where Method B was used, the channels were washed with live cell imaging media and imaged using a purpose build incubator housing the microscope maintaining 37° C., 5% CO2 and 10% humidity.
(§2) All live cell imaging experiments used either NIH 3T3 mouse skin fibroblast cells, PC-3 cells, a grade 3 human prostate adenocarcinoma, or Chinese hamster ovary cells (CHO). These are all well-studied cell lines with discrete morphological compositions. Each molecular machine was used as a stock solution at 0.10 to 1.00 μM with total dimethyl sulfoxide (DMSO) concentrations not exceeding 0.1% in the final cell media in order to avoid unwanted cell membrane permeabilization, the DMSO being required for solubility of the organic nanomachines. All loading experiments are carried out in a light-suppressed manner and the possibility of induced or accelerated uptake due to interaction between the molecular motors and the applied co-stain has been eliminated using a series of individual and reversed loading experiments.
(§3) All experimental imaging parameters (i.e., laser beam size, confocal pinhole size, laser intensity, line scanning speed, scanning area (field of view, FOV), and line averaging sequences) were kept constant throughout the experiments. The accuracy and errors associated with the establishment of accelerated necrosis are determined based on one dual channel imaging sequence, which takes 15 seconds in total. This imaging sequence has been carefully established using untreated live cells.
(§4) Steady state fluorescence images were recorded using a PhMoNa enhanced Leica SP5 II LSCM equipped with a HCX PL APO 63×/1.40 NA LambdaBlue Oil immersion objective. As an initial control experiment to establish the UV-induced cell toxicity threshold, while mitigating voxel exposure and ensuring sufficient laser dwell time, an imaging sequence has been established to monitor cell morphological and physiological changes as a function of time. All experiments used cell-line-determined culture medium containing 0.1% DMSO.
The applied 100 Hz detection sequence was based on a bidirectional dual-channel continuous scanning method where a minimalistic non-damaging visible laser light (458 nm, 0.2 mW) is used in conjunction with the above detailed UV exposure. This is set as a 2 line/scan accumulation parallel acquisition sequence that is recorded as a function of time. Studied channels correspond to transmission images and UV-induced mitochondrial auto-fluorescence detected at 460 to 550 nm. Applicants further confirmed that the effectiveness of monitoring the UV-activated nanomechanical action on live cells using a conventional CW mercury-arc excitation source equipped with an epi-fluorescence setup consisting of a Zeiss Axiovert 200M inverted microscope, as discussed in FIGS. 18A-C. […]

NIH 3T3 cells [2] = assay: Uptake, localization and toxicity of fluorescent nanomachines without UV-light exposure; format: cell-based, mouse
Method: (§5) Following the synthetic bilipid vesicle experiments, nanomechanical action upon live cells was studied using confocal microscopy aided by a super-resolution technique called Phase Modulation Nanoscopy. Applicants used two experimental methods. In the first method (Method A), the molecular motors were loaded into the cell media and the imaging was initiated within 5 minutes to 24 hours. In the second method, (Method B), the molecular motors were loaded into the cell media, incubated for 30 minutes to 24 hours, and then washed three times with fresh molecular motor-free media before imaging.
Applicants first studied the effect of the nanomachines on the cells without UV-light exposure. […] However, due to 1 and 2 having well-pronounced visible fluorescence properties corresponding to the cy5 and BODIPY addends (FIGS. 5A-B and Table 1, respectively), their intracellular uptake, motion or protein/organelle-assisted trafficking are clearly observed. The two luminescent compounds display very different localization patterns.
Applicants undertook a series of control experiments to confirm active molecular motor uptake and suspected endocytosis, using a range of nanomachine loading concentrations (0.10-1.00 μM, Method A) and incubation times of 5-60 minutes at 4° C., which is a temperature of general endocytosis inhibition.

PC-3 cells = assay: UV-activated nanomechanical necrosis, live cell confocal microscopy, PC-3; format: cell-based, human; settings: for Time of Full Necrosis / Time of Initial Necrosis / % acceleration for full necrosis: 355 nm UV; for % acceleration for full necrosis: versus UV upon blank cells
Method: as §5
Next, Applicants used the smaller nanomachine, 3. Initial control experiments (blank) were performed without nanomachines being present. UV-induced (355 nm) PC-3 necrosis is not initiated until approximately scan 20 (corresponding to 300 second continuous scanning UV exposure, 400 nJ/voxel total dwell time), characterized by massive disruption and rupture of the mitochondrial network and subsequent well-pronounced auto-fluorescent signal detectable in the nucleoli and nucleus wall (FIG. 7A). This is observable by the nucleoli membrane permeabilization and DNA damage at the onset of necrosis. The UV-induced necrosis reaches final stages at approximately scan 40 (corresponding to 600 seconds) that is consistent with characteristic extracellular membrane rupture and homogenous cytosolic auto-fluorescence, indicating loss of cellular organelle boundaries.
as §1, §2, §3
as §4, with “DMSO. […]” for “DMSO.”

HEK293 cells = assay: Whole cell patch clamp electrophysiology; format: cell-based, human
Method: FIGS. 16A-B show whole-cell patch clamp studies of the dynamic effects of UV-induced molecular mechanical action of compound 3 upon HEK293 cells. Also shown are control studies using compound 3 without UV activation, UV-exposed rotor-free control molecule 5, and no molecular additives x. Compounds 3 and 5 were used at 1.0 μM concentrations. […] Similarly, the rotor-free compound 5, and no molecular additive x, show no inward currents during UV illumination (center two traces). Cells were held at −70 mV in voltage clamp mode and UV exposure began 15 seconds after the start of the recording. Each recording is a biological replicate and all traces are shown (n=4 recordings from different cells for 3+UV; n=3 recordings from different cells for each other condition). […] The white arrows (lower right image) highlight membrane blebbing that appears only in the cells treated with UV-activated compound 3. The scale bar represents 10 μm and is applicable for each micrograph.
The dynamic effects of nanomechanical action upon cellular membranes were then studied through the whole cell patch clamp electrophysiology of human embryonic kidney 293 cells (HEK293) commonly used for electrophysiological interrogation. […] These inward currents were not observed in the absence of UV illumination or during UV illumination of non-rotor-bearing control 5 or UV illumination of untreated cells (FIG. 16A).

[3] = NIH 3T3, Method B (washed three times)
[4] = PC-3, Method B (washed three times)

With `CC1=CC(C)=[N+]2C1=C(c1ccccc1C(=O)OCc1cn(CCC#Cc3ccc4c(c3)C(=C3c5c(ccc6ccccc56)C[C@H]3C)c3cc(C#CCCn5cc(COC(=O)c6ccccc6C6=C7C(C)=CC(C)=[N+]7[B-](F)(F)n7c(C)cc(C)c76)nn5)ccc3S4)nn1)c1c(C)cc(C)n1[B-]2(F)F` (racemic) [Compound 2] the “Time of Full Necrosis” value (NIH 3T3 cells [1]; NIH 3T3, Method A (no washing)) was 585 s, the “Time of Initial Necrosis” value (NIH 3T3 cells [1]; NIH 3T3, Method A (no washing)) was 300 s and the “% acceleration for full necrosis” value (NIH 3T3 cells [1]; NIH 3T3, Method A) was 2.5%. For the same compound, the “Time of Full Necrosis” value (NIH 3T3 cells [1]; [3]) was 570 s, the “Time of Initial Necrosis” value (NIH 3T3 cells [1]; [3]) was 300 s and the “% acceleration for full necrosis” value (NIH 3T3 cells [1]; NIH 3T3, Method B) was 5%. The “localized fluorescence at 4° C. (endocytosis inhibition) (in words)” value (NIH 3T3 cells [2]; NIH 3T3, 0.10-1.00 μM, 5-60 minutes, 4° C.) was “no detectable localized fluorescence”, the “intracellular localization without UV (in words)” value (NIH 3T3 cells [2]; NIH 3T3, Method A, 0.10-1.00 μM) was “enters the cell and localizes in the mitochondria” and the “necrosis without UV-light exposure (in words)” value (NIH 3T3 cells [2]; NIH 3T3, Method A, no UV) was “do not induce accelerated necrosis”. For the same compound, the “toxicity in the applied time and concentration regimes (in words)” value (NIH 3T3 cells [2]; NIH 3T3, no UV) was “non-toxic”.
For `Cc1ccc(S(=O)(=O)OCCC#Cc2ccc3c(c2)C(=C2c4c(ccc5ccccc45)C[C@H]2C)c2cc(C#CCCOS(=O)(=O)c4ccc(C)cc4)ccc2S3)cc1` (racemic) [Compound 4], the “Time of Full Necrosis” value (PC-3 cells; PC-3, Method A (no washing)) was 540 s, the “Time of Initial Necrosis” value (PC-3 cells; PC-3, Method A (no washing)) was 270 s and the “% acceleration for full necrosis” value (PC-3 cells; PC-3, Method A) was 10%. The “Time of Full Necrosis” value (NIH 3T3 cells [1]; NIH 3T3, Method A (no washing)) was 540 s, the “Time of Initial Necrosis” value (NIH 3T3 cells [1]; NIH 3T3, Method A (no washing)) was 270 s and the “% acceleration for full necrosis” value (NIH 3T3 cells [1]; NIH 3T3, Method A) was 10%.
With `C[C@@H]1CSc2ccc3ccccc3c2C1=C1c2cc(C#CCCO)ccc2Sc2ccc(C#CCCO)cc21` (racemic) [Compound 6, reference compound] the “effect on necrosis upon standardized UV-exposure (in words)” value (shortened to “effect”) (PC-3 cells; PC-3, Method A) was “no enhanced necrosis”, the “Time of Full Necrosis” value (PC-3 cells; PC-3, Method A (no washing)) was 600 s and the “Time of Initial Necrosis” value (PC-3 cells; PC-3, Method A (no washing)) was 300 s. The “% acceleration for full necrosis” value (PC-3 cells; PC-3, Method A) was 0%, the “effect” value (NIH 3T3 cells [1]; NIH 3T3, Method A) was “no enhanced necrosis” and the “Time of Full Necrosis” value (NIH 3T3 cells [1]; NIH 3T3, Method A (no washing)) was 615 s. The “Time of Initial Necrosis” value (NIH 3T3 cells [1]; NIH 3T3, Method A (no washing)) was 300 s and the “% acceleration for full necrosis” value (NIH 3T3 cells [1]; NIH 3T3, Method A) was 0%.
`O=c1c2cc(C#CCCO)ccc2sc2ccc(C#CCCO)cc12` [Compound 5, reference compound] was tested, and the “effect” value (PC-3 cells; PC-3, Method A) was “no effect on necrosis”, the “Time of Full Necrosis” value (PC-3 cells; PC-3, Method A (no washing)) was 600 s and the “Time of Initial Necrosis” value (PC-3 cells; PC-3, Method A (no washing)) was 300 s. For the same compound, the “% acceleration for full necrosis” value (PC-3 cells; PC-3, Method A) was 0%, the “membrane currents without UV illumination (in words)” value (HEK293 cells; HEK293, 1.0 μM, 4 minute recording, no UV) was “no change in membrane currents” and the “inward ionic currents during UV illumination (in words)” value (HEK293 cells; HEK293, Method B, UV 355 nm, 1.0 μM) was “not observed”. For the same compound, the “effect” value (NIH 3T3 cells [1]; NIH 3T3, Method A) was “no effect on necrosis”, the “Time of Full Necrosis” value (NIH 3T3 cells [1]; NIH 3T3, Method A (no washing)) was 600 s and the “Time of Initial Necrosis” value (NIH 3T3 cells [1]; NIH 3T3, Method A (no washing)) was 300 s. The “% acceleration for full necrosis” value (NIH 3T3 cells [1]; NIH 3T3, Method A) was 0%.
With `C[C@@H]1Cc2ccc3ccccc3c2C1=C1c2cc(C#CCCn3cc(CCC(=O)N[C@@H](CC(=O)O)C(=O)NCC(=O)N[C@@H](CCC(=O)O)C(=O)N[C@@H](C)C(N)=O)nn3)ccc2Sc2ccc(C#CCCn3cc(CCC(=O)N[C@@H](CC(=O)O)C(=O)NCC(=O)N[C@@H](CCC(=O)O)C(=O)N[C@@H](C)C(N)=O)nn3)cc21` [Compound 7] the “selectivity for targeted PC-3 cells over non-targeted control cells (in words)” value (PC-3 cells; NIH 3T3 and CHO as non-targeted controls) was “No selectivity was observed”, the “Time of Full Necrosis” value (PC-3 cells; PC-3, Method A (no washing)) was 360 s and the “Time of Initial Necrosis” value (PC-3 cells; PC-3, Method A (no washing)) was 165 s. The “% acceleration for full necrosis” value (PC-3 cells; PC-3, Method A) was 35%, the “Time of Full Necrosis” value (PC-3 cells; [4]) was 390 s and the “Time of Initial Necrosis” value (PC-3 cells; [4]) was 180 s. The “% acceleration for full necrosis” value (PC-3 cells; PC-3, Method B) was 35%, the “Time of Full Necrosis” value (NIH 3T3 cells [1]; NIH 3T3, Method A (no washing)) was 390 s and the “Time of Initial Necrosis” value (NIH 3T3 cells [1]; NIH 3T3, Method A (no washing)) was 150 s. The “% acceleration for full necrosis” value (NIH 3T3 cells [1]; NIH 3T3, Method A) was 40%, the “Time of Full Necrosis” value (NIH 3T3 cells [1]; [3]) was 390 s and the “Time of Initial Necrosis” value (NIH 3T3 cells [1]; [3]) was 165 s. For the same compound, the “% acceleration for full necrosis” value (NIH 3T3 cells [1]; NIH 3T3, Method B) was 40%.
`OCCC#Cc1ccc2c(c1)C(=C1CCc3ccc4ccccc4c31)c1cc(C#CCCO)ccc1S2` [NonMe-3, reference compound] was tested, and the “Time of Full Necrosis” value (PC-3 cells; PC-3, Method A (no washing)) was 540 s, the “Time of Initial Necrosis” value (PC-3 cells; PC-3, Method A (no washing)) was 270 s and the “% acceleration for full necrosis” value (PC-3 cells; PC-3, Method A) was 10%. For the same compound, the “effect” value (PC-3 cells; PC-3, Method A, listed as compound analogous to 3 but without the allylic methyl) was “only slightly faster than the motor-free system” and the “effect” value (PC-3 cells; PC-3, Method A, listed as demethylated 3) was “slowed necrosis”.
